# According to the supplement of paper PMC10307832:
# Columns and labels:
# Test in all cases: relative viability (nuclei count vs DMSO), 5 days (fraction); higher = more cells survive
# BEN = tested on: BEN
# Summary of the method: (§1)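 After 5 days of treatment, lung cancer cells in 1536-well plates were fixed and stained in a single step (final 0.05% Triton X-100, 1% formaldehyde, 1 ug/ml Hoechst) and their nuclei counted on 4× images. Treatment had been applied by pin tool the day after seeding as one drug alone or as a fixed anchor-drug dose with five library-drug doses (not always all listed) in √10 steps. Relative viability is the nuclei count of treated wells divided by that of vehicle wells, and values are medians of duplicate plates.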
# NCI-H2087 = tested on: NCI-H2087
# Summary of the method: as §1
# SW 1573 = tested on: SW 1573
# Summary of the method: as §1
# NCI-H1650 = tested on: NCI-H1650
# Summary of the method: as §1
# HCC-827 = tested on: HCC-827
# Summary of the method: as §1
# A-427 = tested on: A-427
# Summary of the method: as §1
# COR-L23 = tested on: COR-L23
# Summary of the method: as §1
# NCI-H2126 = tested on: NCI-H2126
# Summary of the method: as §1
# LCLC-103H = tested on: LCLC-103H
# Summary of the method: as §1
# 201T = tested on: 201T
# Summary of the method: as §1
# NCI-H1793 = tested on: NCI-H1793
# Summary of the method: as §1
# NCI-H1651 = tested on: NCI-H1651
# Summary of the method: as §1
# EMC-BAC-2 = tested on: EMC-BAC-2
# Summary of the method: as §1
# NCI-H596 = tested on: NCI-H596
# Summary of the method: as §1
# NCI-H441 = tested on: NCI-H441
# Summary of the method: as §1
# EPLC-272H = tested on: EPLC-272H
# Summary of the method: as §1
# NCI-H460 = tested on: NCI-H460
# Summary of the method: as §1
# HCC-44 = tested on: HCC-44
# Summary of the method: as §1
# LK-2 = tested on: LK-2
# Summary of the method: as §1
# NCI-H1915 = tested on: NCI-H1915
# Summary of the method: as §1
# NCI-H2347 = tested on: NCI-H2347
# Summary of the method: as §1
# EKVX = tested on: EKVX
# Summary of the method: as §1
# NCI-H358 = tested on: NCI-H358
# Summary of the method: as §1
# SW 900 = tested on: SW 900
# Summary of the method: as §1
# LXF-289 = tested on: LXF-289
# Summary of the method: as §1
compound,measurement,setting,value
CCCCCCCCCCCC1=C(O)C(=O)C=C(O)C1=O [Embelin] + Nc1ncn([C@H]2C[C@H](O)[C@@H](CO)O2)c(=O)n1 [Decitabine] (partner 2 µM),relative viability,BEN; first compound 0.08 µM,0.717
same,relative viability,BEN; first compound 0.8 µM,0.813
same,relative viability,BEN; first compound 2.53 µM,0.812
same,relative viability,BEN; first compound 8 µM,0.559
same,relative viability,NCI-H2087; first compound 0.08 µM,0.278
same,relative viability,NCI-H2087; first compound 0.8 µM,0.295
same,relative viability,NCI-H2087; first compound 2.53 µM,0.361
same,relative viability,NCI-H2087; first compound 8 µM,0.225
same,relative viability,SW 1573; first compound 0.08 µM,0.422
same,relative viability,SW 1573; first compound 0.8 µM,0.674
same,relative viability,SW 1573; first compound 2.53 µM,0.654
same,relative viability,SW 1573; first compound 8 µM,0.456
same,relative viability,NCI-H1650; first compound 0.08 µM,0.354
same,relative viability,NCI-H1650; first compound 0.8 µM,0.362
same,relative viability,NCI-H1650; first compound 2.53 µM,0.457
same,relative viability,NCI-H1650; first compound 8 µM,0.384
same,relative viability,HCC-827; first compound 0.08 µM,0.336
same,relative viability,HCC-827; first compound 0.8 µM,0.333
same,relative viability,HCC-827; first compound 2.53 µM,0.38
same,relative viability,HCC-827; first compound 8 µM,0.355
same,relative viability,A-427; first compound 0.08 µM,0.494
same,relative viability,A-427; first compound 0.8 µM,0.555
same,relative viability,A-427; first compound 2.53 µM,0.561
same,relative viability,A-427; first compound 8 µM,0.54
same,relative viability,COR-L23; first compound 0.08 µM,0.454
same,relative viability,COR-L23; first compound 0.8 µM,0.479
same,relative viability,COR-L23; first compound 2.53 µM,0.433
same,relative viability,COR-L23; first compound 8 µM,0.393
same,relative viability,NCI-H2126; first compound 0.08 µM,0.514
same,relative viability,NCI-H2126; first compound 0.8 µM,0.519
same,relative viability,NCI-H2126; first compound 2.53 µM,0.589
same,relative viability,NCI-H2126; first compound 8 µM,0.513
same,relative viability,LCLC-103H; first compound 0.08 µM,0.754
same,relative viability,LCLC-103H; first compound 0.8 µM,0.755
same,relative viability,LCLC-103H; first compound 2.53 µM,0.737
same,relative viability,LCLC-103H; first compound 8 µM,0.718
same,relative viability,201T; first compound 0.08 µM,0.82
same,relative viability,201T; first compound 0.8 µM,0.884
same,relative viability,201T; first compound 2.53 µM,0.853
same,relative viability,201T; first compound 8 µM,0.831
same,relative viability,NCI-H1793; first compound 0.08 µM,0.586
same,relative viability,NCI-H1793; first compound 0.8 µM,0.625
same,relative viability,NCI-H1793; first compound 2.53 µM,0.505
same,relative viability,NCI-H1793; first compound 8 µM,0.549
same,relative viability,NCI-H1651; first compound 0.08 µM,0.634
same,relative viability,NCI-H1651; first compound 0.8 µM,0.67
same,relative viability,NCI-H1651; first compound 2.53 µM,0.867
same,relative viability,NCI-H1651; first compound 8 µM,0.659
same,relative viability,EMC-BAC-2; first compound 0.08 µM,0.945
same,relative viability,EMC-BAC-2; first compound 0.8 µM,1.01
same,relative viability,EMC-BAC-2; first compound 2.53 µM,0.958
same,relative viability,EMC-BAC-2; first compound 8 µM,0.955
same,relative viability,NCI-H596; first compound 0.08 µM,0.945
same,relative viability,NCI-H596; first compound 0.8 µM,0.958
same,relative viability,NCI-H596; first compound 2.53 µM,1.19
same,relative viability,NCI-H596; first compound 8 µM,1.06
same,relative viability,NCI-H441; first compound 0.08 µM,0.221
same,relative viability,NCI-H441; first compound 0.8 µM,0.268
same,relative viability,NCI-H441; first compound 2.53 µM,0.198
same,relative viability,NCI-H441; first compound 8 µM,0.237
same,relative viability,EPLC-272H; first compound 0.08 µM,0.363
same,relative viability,EPLC-272H; first compound 0.8 µM,0.401
same,relative viability,EPLC-272H; first compound 2.53 µM,0.355
same,relative viability,EPLC-272H; first compound 8 µM,0.367
same,relative viability,NCI-H460; first compound 0.08 µM,0.455
same,relative viability,NCI-H460; first compound 0.8 µM,0.511
same,relative viability,NCI-H460; first compound 2.53 µM,0.577
same,relative viability,NCI-H460; first compound 8 µM,0.254
same,relative viability,HCC-44; first compound 0.08 µM,0.981
same,relative viability,HCC-44; first compound 0.8 µM,0.953
same,relative viability,HCC-44; first compound 2.53 µM,0.986
same,relative viability,HCC-44; first compound 8 µM,0.944
same,relative viability,LK-2; first compound 0.08 µM,0.287
same,relative viability,LK-2; first compound 0.8 µM,0.348
same,relative viability,LK-2; first compound 2.53 µM,0.406
same,relative viability,LK-2; first compound 8 µM,0.332
same,relative viability,NCI-H1915; first compound 0.08 µM,0.265
same,relative viability,NCI-H1915; first compound 0.8 µM,0.241
same,relative viability,NCI-H1915; first compound 2.53 µM,0.263
same,relative viability,NCI-H1915; first compound 8 µM,0.264
same,relative viability,NCI-H2347; first compound 0.08 µM,0.618
same,relative viability,NCI-H2347; first compound 0.8 µM,0.72
same,relative viability,NCI-H2347; first compound 2.53 µM,0.671
same,relative viability,NCI-H2347; first compound 8 µM,0.592
same,relative viability,EKVX; first compound 0.08 µM,0.41
same,relative viability,EKVX; first compound 0.8 µM,0.4
same,relative viability,EKVX; first compound 2.53 µM,0.314
same,relative viability,EKVX; first compound 8 µM,0.313
same,relative viability,NCI-H358; first compound 0.08 µM,0.2
same,relative viability,NCI-H358; first compound 0.8 µM,0.233
same,relative viability,NCI-H358; first compound 2.53 µM,0.23
same,relative viability,NCI-H358; first compound 8 µM,0.221
same,relative viability,SW 900; first compound 0.08 µM,0.449
same,relative viability,SW 900; first compound 0.8 µM,0.402
same,relative viability,SW 900; first compound 2.53 µM,0.466
same,relative viability,SW 900; first compound 8 µM,0.454
same,relative viability,LXF-289; first compound 0.08 µM,0.396
same,relative viability,LXF-289; first compound 0.8 µM,0.419
same,relative viability,LXF-289; first compound 2.53 µM,0.455
same,relative viability,LXF-289; first compound 8 µM,0.352
